Results from US20230263822A1, “MODULATION OF FACTOR 11 EXPRESSION” (Ionis Pharmaceuticals, Inc., priority 2008, published 2023).

Assay: Hematology assays in cynomolgus monkeys (Example 45)
Format: in vivo
Protocol: Groups, each consisting of two male and three female monkeys, were injected subcutaneously with ISIS 416838, ISIS 416850, ISIS 416858, ISIS 416864, or ISIS 417002 in escalating doses. Antisense oligonucleotide was administered to the monkeys at 5 mg/kg three times per a week for week 1; 5 mg/kg twice per week for weeks 2 and 3; 10 mg/kg three times per week for week 4; 10 mg/kg twice per week for weeks 5 and 6; 25 mg/kg three times per week for week 7; and 25 mg/kg twice per week for weeks 8, 9, 10, 11, and 12. One control group, consisting of two male and three female monkeys, was injected subcutaneously with PBS according to the same dosing regimen. An additional experimental group, consisting of two male and three female monkeys, was injected subcutaneously with ISIS 416850 in a chronic, lower dose regimen. Antisense oligonucleotide was administered to the monkeys at 5 mg/kg three times per week for week 1; 5 mg/kg twice per week for week 2 and 3; 10 mg/kg three times per week for week 4; and 10 mg/kg twice per week for weeks 5 to 12. Body weights were measured weekly. Blood samples were collected 14 days and 5 days before the start of treatment and subsequently once per week for Factor 11 protein activity analysis in plasma, fibrinogen measurement, PT and aPTT measurements, bleeding times, and measurement of various hematologic factors. On day 85, the monkeys were euthanized by exsanguination while under deep anesthesia, and organs harvested for further analysis.
The ISIS oligonucleotide, ISIS 416850, given with the chronic dose regimen is distinguished from the other oligonucleotides with an asterisk (*).

[1] = day 8, chronic dose regimen (*)
[2] = day 15, chronic dose regimen (*)
[3] = day 15, escalating dose regimen
[4] = day 22, chronic dose regimen (*)
[5] = day 22, escalating dose regimen
[6] = day 29, chronic dose regimen (*)
[7] = day 29, escalating dose regimen
[8] = day 36, chronic dose regimen (*)
[9] = day 36, escalating dose regimen
[10] = day 43, chronic dose regimen (*)

ISIS 416850: MOE gapmer, nucleobases 1275 to 1318 of SEQ ID NO: 1 (Table 8) (antisense TGCACAGTTTCTGGCAGGCC; MOE gapmer, wing and gap sizes not given here)
MCH (Day 64, escalating dose regimen): 22 pg | MCH (Day 71, escalating dose regimen): 23 pg | MCH (Day 78, escalating dose regimen): 23 pg | MCH (Day 85, escalating dose regimen): 22 pg | basophils (day 8): 0.2% | eosinophils (day 8): 1.1% | lymphocytes (day 8): 39% | monocytes (day 8): 1.8% | neutrophils (day 8): 57% | platelet count (day 8): 548000 µL⁻¹ | reticulocytes (day 8): 1.2% | MCH [1]: 23 pg | MCHC [1]: 29 g/dL | MCV [1]: 79 fL | RBC count [1]: 5.5e+06 µL⁻¹ | WBC count [1]: 13000 µL⁻¹ | basophils [1]: 0.3% | eosinophils [1]: 0.5% | hematocrit [1]: 43% | hemoglobin [1]: 12.5 g/dL | lymphocytes [1]: 44% | monocytes [1]: 1.8% | neutrophils [1]: 53% | platelet count [1]: 401000 µL⁻¹ | reticulocytes [1]: 1.1% | MCH (day 8, escalating dose regimen): 23 pg | MCHC (day 8, escalating dose regimen): 29 g/dL | MCV (day 8, escalating dose regimen): 80 fL | RBC count (day 8, escalating dose regimen): 5.4e+06 µL⁻¹ | WBC count (day 8, escalating dose regimen): 10000 µL⁻¹ | hematocrit (day 8, escalating dose regimen): 43% | hemoglobin (day 8, escalating dose regimen): 12.4 g/dL | basophils (day 15): 0.2% | eosinophils (day 15): 1.0% | lymphocytes (day 15): 38% | monocytes (day 15): 2.0% | neutrophils (day 15): 58% | platelet count (day 15): 559000 µL⁻¹ | reticulocytes (day 15): 1.9% | MCH [2]: 23 pg | MCHC [2]: 30 g/dL | MCV [2]: 75 fL | RBC count [2]: 5.3e+06 µL⁻¹ | WBC count [2]: 16000 µL⁻¹ | basophils [2]: 0.2% | eosinophils [2]: 0.2% | hematocrit [2]: 40% | hemoglobin [2]: 12.2 g/dL | lymphocytes [2]: 24% | monocytes [2]: 1.5% | neutrophils [2]: 73% | platelet count [2]: 396000 µL⁻¹ | reticulocytes [2]: 1.0% | MCH [3]: 23 pg | MCHC [3]: 30 g/dL | MCV [3]: 76 fL | RBC count [3]: 5.3e+06 µL⁻¹ | WBC count [3]: 9000 µL⁻¹ | hematocrit [3]: 40% | hemoglobin [3]: 12.1 g/dL | basophils (day 22): 0.2% | eosinophils (day 22): 0.7% | lymphocytes (day 22): 39% | monocytes (day 22): 2.4% | neutrophils (day 22): 57% | platelet count (day 22): 466000 µL⁻¹ | reticulocytes (day 22): 1.9% | MCH [4]: 23 pg | MCHC [4]: 29 g/dL | MCV [4]: 79 fL | RBC count [4]: 5.1e+06 µL⁻¹ | WBC count [4]: 15000 µL⁻¹ | basophils [4]: 0.1% | eosinophils [4]: 0.5% | hematocrit [4]: 40% | hemoglobin [4]: 11.7 g/dL | lymphocytes [4]: 33% | monocytes [4]: 1.9% | neutrophils [4]: 64% | platelet count [4]: 347000 µL⁻¹ | reticulocytes [4]: 1.0% | MCH [5]: 24 pg | MCHC [5]: 28 g/dL | MCV [5]: 83 fL | RBC count [5]: 5e+06 µL⁻¹ | WBC count [5]: 10000 µL⁻¹ | hematocrit [5]: 41% | hemoglobin [5]: 11.6 g/dL | basophils (day 29): 0.2% | eosinophils (day 29): 1.2% | lymphocytes (day 29): 43% | monocytes (day 29): 2.7% | neutrophils (day 29): 53% | platelet count (day 29): 475000 µL⁻¹ | reticulocytes (day 29): 2.5% | MCH [6]: 23 pg | MCHC [6]: 28 g/dL | MCV [6]: 82 fL | RBC count [6]: 5.2e+06 µL⁻¹ | WBC count [6]: 14000 µL⁻¹ | basophils [6]: 0.3% | eosinophils [6]: 0.8% | hematocrit [6]: 42% | hemoglobin [6]: 12.0 g/dL | lymphocytes [6]: 53% | monocytes [6]: 2.7% | neutrophils [6]: 42% | platelet count [6]: 370000 µL⁻¹ | reticulocytes [6]: 1.4% | MCH [7]: 23 pg | MCHC [7]: 28 g/dL | MCV [7]: 83 fL | RBC count [7]: 4.9e+06 µL⁻¹ | WBC count [7]: 11000 µL⁻¹ | hematocrit [7]: 41% | hemoglobin [7]: 11.5 g/dL | basophils (day 36): 0.3% | eosinophils (day 36): 1.7% | lymphocytes (day 36): 39% | monocytes (day 36): 2.1% | neutrophils (day 36): 57% | platelet count (day 36): 505000 µL⁻¹ | reticulocytes (day 36): 2.2% | MCH [8]: 23 pg | MCHC [8]: 30 g/dL | MCV [8]: 76 fL | RBC count [8]: 5.3e+06 µL⁻¹ | WBC count [8]: 16000 µL⁻¹ | basophils [8]: 0.1% | eosinophils [8]: 0.4% | hematocrit [8]: 41% | hemoglobin [8]: 12.3 g/dL | lymphocytes [8]: 26% | monocytes [8]: 1.5% | neutrophils [8]: 72% | platelet count [8]: 379000 µL⁻¹ | reticulocytes [8]: 1.3% | MCH [9]: 23 pg | MCHC [9]: 29 g/dL | MCV [9]: 80 fL | RBC count [9]: 5.3e+06 µL⁻¹ | WBC count [9]: 10000 µL⁻¹ | hematocrit [9]: 42% | hemoglobin [9]: 12.2 g/dL | basophils (day 43): 0.3% | eosinophils (day 43): 1.2% | lymphocytes (day 43): 45% | monocytes (day 43): 2.6% | neutrophils (day 43): 50% | platelet count (day 43): 490000 µL⁻¹ | reticulocytes (day 43): 1.6% | MCH [10]: 23 pg | MCHC [10]: 30 g/dL | MCV [10]: 77 fL | RBC count [10]: 5.2e+06 µL⁻¹ | WBC count [10]: 15000 µL⁻¹ | basophils [10]: 0.2% | eosinophils [10]: 0.4% | hematocrit [10]: 40% | hemoglobin [10]: 11.8 g/dL | lymphocytes [10]: 36%
